This note sets out measurements from patent US9458110B2, “Phenylpyrazole derivatives as potent ROCK1 and ROCK2 inhibitors” (BRISTOL-MYERS SQUIBB COMPANY, priority 2013, dated 2016).

One assay deals with ROCK2 (Homo sapiens (Human), UniProt O75116). Briefly: ROCK assay (Caliper LABCHIP peptide phosphorylation), ROCK2.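 Also: reaction stopped with EDTA, then phosphorylated and unphosphorylated peptide resolved by microfluidic electrophoresis, kinase inhibition computed at each compound concentration in dose-response series, DMSO under 2%.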 It counts as biochemical. Particulars: 5 μM ATP, 1.5 μM peptide substrate.
The next assay addresses ROCK1 (Homo sapiens (Human), UniProt Q13464). Kind of assay: ROCK assay (Caliper LABCHIP peptide phosphorylation), ROCK1.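 Also: Read-out is separation of phosphorylated from unphosphorylated peptide, with kinase activity inhibition computed at every concentration of a dose-response series.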 It counts as biochemical. The following applies: 5 μM ATP, 1.5 μM peptide substrate.

Sequence of ROCK2 (O75116 whole entry, species assumed): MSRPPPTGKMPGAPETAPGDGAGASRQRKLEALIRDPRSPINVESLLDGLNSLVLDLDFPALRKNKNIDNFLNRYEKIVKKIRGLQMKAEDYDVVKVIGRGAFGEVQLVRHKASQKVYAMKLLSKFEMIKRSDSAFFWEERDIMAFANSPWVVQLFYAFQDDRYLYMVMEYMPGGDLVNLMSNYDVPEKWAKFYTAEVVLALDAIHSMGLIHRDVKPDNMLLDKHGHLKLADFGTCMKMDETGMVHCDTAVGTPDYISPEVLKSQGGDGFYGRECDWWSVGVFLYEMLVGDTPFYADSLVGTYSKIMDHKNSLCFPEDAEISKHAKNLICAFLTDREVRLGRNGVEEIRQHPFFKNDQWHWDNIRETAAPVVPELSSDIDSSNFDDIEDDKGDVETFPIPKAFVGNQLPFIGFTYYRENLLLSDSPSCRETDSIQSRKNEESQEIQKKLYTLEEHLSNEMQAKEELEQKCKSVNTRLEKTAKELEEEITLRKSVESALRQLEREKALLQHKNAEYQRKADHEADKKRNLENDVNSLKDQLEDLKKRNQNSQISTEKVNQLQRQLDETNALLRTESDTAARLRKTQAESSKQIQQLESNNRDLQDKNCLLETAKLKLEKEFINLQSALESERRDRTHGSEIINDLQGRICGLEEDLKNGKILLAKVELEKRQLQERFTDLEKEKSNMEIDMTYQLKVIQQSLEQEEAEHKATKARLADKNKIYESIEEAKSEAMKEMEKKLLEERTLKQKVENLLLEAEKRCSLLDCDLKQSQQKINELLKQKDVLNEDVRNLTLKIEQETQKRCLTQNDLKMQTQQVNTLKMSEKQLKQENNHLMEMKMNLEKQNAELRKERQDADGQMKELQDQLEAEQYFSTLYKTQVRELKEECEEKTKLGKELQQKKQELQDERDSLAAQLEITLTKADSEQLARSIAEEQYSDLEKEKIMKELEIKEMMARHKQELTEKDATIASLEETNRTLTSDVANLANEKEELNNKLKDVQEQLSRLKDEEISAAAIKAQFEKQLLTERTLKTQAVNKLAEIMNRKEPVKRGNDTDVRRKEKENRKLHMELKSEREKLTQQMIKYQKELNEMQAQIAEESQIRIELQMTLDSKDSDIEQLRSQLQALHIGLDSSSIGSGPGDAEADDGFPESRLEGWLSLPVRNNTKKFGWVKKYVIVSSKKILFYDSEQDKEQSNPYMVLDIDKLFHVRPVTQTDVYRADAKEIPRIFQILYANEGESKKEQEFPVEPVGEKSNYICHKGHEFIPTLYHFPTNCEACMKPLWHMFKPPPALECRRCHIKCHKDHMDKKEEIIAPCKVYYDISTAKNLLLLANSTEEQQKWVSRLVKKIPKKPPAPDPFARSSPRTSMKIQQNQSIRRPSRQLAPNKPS
Sequence of ROCK1 (Q13464 whole entry, species assumed): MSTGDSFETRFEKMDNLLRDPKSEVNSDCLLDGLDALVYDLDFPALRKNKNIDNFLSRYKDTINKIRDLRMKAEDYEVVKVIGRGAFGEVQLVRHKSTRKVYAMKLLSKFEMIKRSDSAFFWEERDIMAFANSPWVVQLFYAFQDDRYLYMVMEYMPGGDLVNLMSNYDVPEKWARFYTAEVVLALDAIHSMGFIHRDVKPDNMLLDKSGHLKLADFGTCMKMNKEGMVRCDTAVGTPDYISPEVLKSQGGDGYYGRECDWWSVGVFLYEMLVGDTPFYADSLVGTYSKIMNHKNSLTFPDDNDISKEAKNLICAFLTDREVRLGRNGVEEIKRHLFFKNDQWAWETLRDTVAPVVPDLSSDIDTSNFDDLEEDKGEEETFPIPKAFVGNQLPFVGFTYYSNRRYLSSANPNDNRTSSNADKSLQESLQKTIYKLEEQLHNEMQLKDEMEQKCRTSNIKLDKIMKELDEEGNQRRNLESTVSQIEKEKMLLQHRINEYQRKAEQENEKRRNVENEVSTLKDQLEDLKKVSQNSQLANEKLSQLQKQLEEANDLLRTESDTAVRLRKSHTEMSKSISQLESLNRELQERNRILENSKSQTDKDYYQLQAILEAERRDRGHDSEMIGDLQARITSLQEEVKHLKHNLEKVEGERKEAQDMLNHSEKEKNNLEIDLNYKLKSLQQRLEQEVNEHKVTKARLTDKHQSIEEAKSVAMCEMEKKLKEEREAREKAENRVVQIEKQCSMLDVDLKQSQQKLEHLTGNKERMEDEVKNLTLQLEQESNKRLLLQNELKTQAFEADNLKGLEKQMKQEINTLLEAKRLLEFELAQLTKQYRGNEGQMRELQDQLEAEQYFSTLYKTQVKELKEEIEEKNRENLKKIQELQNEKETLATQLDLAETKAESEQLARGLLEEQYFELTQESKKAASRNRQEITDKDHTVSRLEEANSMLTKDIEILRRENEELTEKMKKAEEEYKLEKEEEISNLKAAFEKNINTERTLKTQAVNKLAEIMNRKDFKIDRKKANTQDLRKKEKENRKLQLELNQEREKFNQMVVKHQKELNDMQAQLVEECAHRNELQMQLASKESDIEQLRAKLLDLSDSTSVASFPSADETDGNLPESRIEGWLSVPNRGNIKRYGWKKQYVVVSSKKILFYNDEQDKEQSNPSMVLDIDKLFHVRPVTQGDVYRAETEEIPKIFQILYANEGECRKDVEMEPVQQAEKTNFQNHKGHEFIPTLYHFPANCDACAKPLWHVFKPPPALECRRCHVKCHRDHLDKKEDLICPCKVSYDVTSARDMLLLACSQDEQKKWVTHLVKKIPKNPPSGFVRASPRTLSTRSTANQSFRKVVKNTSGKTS

Turning to `C[C@@H](NC(=O)c1ccc(-c2cn[nH]c2)c(Cn2ccnn2)c1)c1ccccc1` [Example 137, N-[(1R)-1-phenylethyl]-4-(1H-pyrazol-4-yl)-3-(1H-1,2,3-triazol-1-ylmethyl) benzamide], the figures for the IC50 on ROCK2 and at ROCK1 were 1900 nM and over 2000 nM, respectively.

As to `COc1cc(C(=O)NCc2cccc(C#N)c2)ccc1-c1cn[nH]c1` [Example 138, N-[(3-cyanophenyl)methyl]-3-methoxy-4-(1H-pyrazol-4-yl)benzamide], the values for the IC50 at ROCK2 and against ROCK1 were 8.24 nM and 32.6 nM, respectively.

Take `COc1ccc(F)c(C(C)NC(=O)c2ccc(-c3cn[nH]c3)c(OC)c2)c1` (stereo not shown) [Example 139, N-[1-(2-fluoro-5-methoxy-phenyl)ethyl]-3-methoxy-4-(1H-pyrazol-4-yl)benzamide]: the results for the IC50 against ROCK2 and against ROCK1 were 47.2 nM and 172 nM, respectively.

As for `COc1ccc(F)c(C(C)NC(=O)c2ccc(-c3cn[nH]c3)c(OC)c2)c1` (stereo not shown) [Example 140, N-[1-(2-fluoro-5-methoxyphenyl)ethyl]-3-methoxy-4-(1H-pyrazol-4-yl)benzamide], the IC50 (in general, the midpoint of a concentration-inhibition curve) is 0.83 nM on ROCK2 and 3.36 nM on ROCK1.

Regarding `COc1cc(C(=O)NCc2ccc(C#N)cc2)ccc1-c1cn[nH]c1` [Example 143, N-[(4-cyanophenyl)methyl]-3-methoxy-4-(1H-pyrazol-4-yl)benzamide], the IC50 against ROCK2 was determined as 82.5 nM; at ROCK1, 365 nM.

`COc1cc(C(=O)NC(CCO)c2ccccc2)ccc1-c1cn[nH]c1` (stereo not shown) [Example 145, N-(3-hydroxy-1-phenylpropyl)-3-methoxy-4-(1H-pyrazol-4-yl)benzamide]: the 50% inhibitory concentration (IC50) against ROCK2 came to 282 nM; against ROCK1, 301 nM.

Turning to `COc1cc(C(=O)NC(CCO)c2ccccc2)ccc1-c1cn[nH]c1` (stereo not shown) [Example 146, N-(3-hydroxy-1-phenylpropyl)-3-methoxy-4-(1H-pyrazol-4-yl)benzamide], the values for the IC50 on ROCK2 and on ROCK1 were 2.17 nM and 7.8 nM, respectively.

Turning to `COc1ccc(F)c(C(C)NC(=O)c2ccc(-c3c[nH]nc3C)cc2OC)c1` (stereo not shown) [Example 147, N-[1-(2-fluoro-5-methoxyphenyl)ethyl]-2-methoxy-4-(3-methyl-1H-pyrazol-4-yl)benzamide], the results for the IC50 against ROCK2 and on ROCK1 were 5.09 nM and 23.5 nM, respectively.

Take `COc1ccc(F)c(CNC(=O)c2ccc(-c3cn[nH]c3)c(C)c2)c1` [Example 148, N-[(2-fluoro-5-methoxyphenyl)methyl]-3-methyl-4-(1H-pyrazol-4-yl)benzamide]: the IC50 at ROCK2 worked out at 51.2 nM; on ROCK1, 174 nM.

In the case of `Cc1cc(C(=O)NCc2ccc(F)cc2Cl)ccc1-c1cn[nH]c1` [Example 149, N-[(2-chloro-4-fluorophenyl)methyl]-3-methyl-4-(1H-pyrazol-4-yl)benzamide], the IC50 came to 11.6 nM at ROCK2 and 16.9 nM against ROCK1.

For the molecule `Cc1cc(C(=O)N[C@H](C)c2ccc(F)cc2)ccc1-c1cn[nH]c1` [Example 150, N-[(1R)-1-(4-fluorophenyl)ethyl]-3-methyl-4-(1H-pyrazol-4-yl)benzamide], the IC50 came to 18.9 nM on ROCK2 and 13.1 nM on ROCK1.

Consider `Cc1cc(C(=O)NCc2c(F)cccc2Cl)ccc1-c1cn[nH]c1` [Example 151, N-[(2-chloro-6-fluorophenyl)methyl]-3 methyl-4-(1H-pyrazol-4-yl)benzamide], for which the IC50 stood at 9.83 nM at ROCK2 and 19.7 nM on ROCK1.

For `COc1ccc(F)c(C(C)NC(=O)c2ccc(-c3c[nH]nc3C)cc2OC)c1` (stereo not shown) [Example 152, N-[1-(2-fluoro-5-methoxyphenyl)ethyl]-2-methoxy-4-(3-methyl-1H-pyrazol-4-yl)benzamide], the IC50 on ROCK2 was 627 nM; against ROCK1, 1510 nM.

Take `COc1cccc([C@@H](C)NC(=O)c2ccc(-c3c(C)n[nH]c3C)c(C)c2)c1` [Example 153, 4-(3,5-dimethyl-1H-pyrazol-4-yl)-N-[(1R)-1-(3-methoxyphenyl)ethyl]-3-methylbenzamide]: the figures for the IC50 against ROCK2 and on ROCK1 were 415 nM and over 2000 nM, respectively.

With `C[C@@H](NC(=O)c1ccc(-c2cn[nH]c2)c(OCC(C)(C)O)c1)c1ccccc1` [Example 154, 3-(2-hydroxy-2-methylpropoxy)-N-[(1R)-1-phenylethyl]-4-(1H-pyrazol-4-yl)benzamide], the concentration for half-maximal inhibition (IC50) was determined as 452 nM on ROCK2 and 1790 nM on ROCK1.

On to `COC(=O)C[C@@H](NC(=O)c1ccc(-c2cn[nH]c2)c(C)c1)c1ccccc1` [Example 155, methyl (3R)-3-{[3-methyl-4-(1H-pyrazol-4-yl)phenyl] formamido}-3-phenyl-propanoate], for which the results for the IC50 at ROCK2 and against ROCK1 were 70.2 nM and 405 nM, respectively.

`C[C@@H](NC(=O)c1ccc(-c2cn[nH]c2)c(OC(F)F)c1)c1ccccc1` [Example 156, 3-(difluoro-methoxy)-N-[(1R)-1-phenylethyl]-4-(1H-pyrazol-4-yl)benzamide]: the 50% inhibitory concentration (IC50) at ROCK2 is 4 nM; on ROCK1 it was 11.4 nM.

For the molecule `COC[C@@H](NC(=O)c1ccc(-c2cn[nH]c2)c(OC)c1)c1ccccc1` [Example 157, 3-methoxy-N-[(1S)-2-methoxy-1-phenylethyl]-4-(1H-pyrazol-4-yl)benzamide], the results for the half-inhibitory concentration (IC50) on ROCK2 and on ROCK1 were 3.94 nM and 10.3 nM, respectively.

Take `COc1cc(C(=O)NC(C)c2cccc(O)n2)ccc1-c1cn[nH]c1` (stereo not shown) [Example 159, N-[1-(6-hydroxypyridin-2-yl)ethyl]-3-methoxy-4-(1H-pyrazol-4-yl)benzamide]: the IC50 at ROCK2 was 6.76 nM; at ROCK1, 7.39 nM.

On to `O=C(N[C@H](CO)c1ccccc1)c1ccc(-c2cn[nH]c2)c(OC(F)F)c1` [Example 160, 3-(difluoro-methoxy)-N-[(1S)-2-hydroxy-1-phenylethyl]-4-(1H-pyrazol-4-yl)benzamide], for which the IC50 against ROCK2 came to 6.94 nM; against ROCK1, 17.1 nM.

As for `COc1cccc(CNC(=O)c2ccc(-c3cn[nH]c3)cc2CO)c1` [Example 161, 2-(hydroxymethyl)-N-[(3-methoxyphenyl)methyl]-4-(1H-pyrazol-4-yl)benzamide], the IC50 against ROCK2 came to 185 nM; at ROCK1 it was 792 nM.

Regarding `COc1cc(C(=O)NC(CO)c2ccccc2F)ccc1-c1cn[nH]c1` (stereo not shown) [Example 162, N-[1-(2-fluorophenyl)-2-hydroxyethyl]-3-methoxy-4-(1H-pyrazol-4-yl)benzamide], the IC50 against ROCK2 stood at 2.94 nM; against ROCK1 it was 11.7 nM.

Take `C[C@@H](NC(=O)c1ccc(-c2cn[nH]c2)c(OC(F)F)c1)c1ccc(F)cc1` [Example 164, 3-(difluoro-methoxy)-N-[(1R)-1-(4-fluorophenyl)ethyl]-4-(1H-pyrazol-4-yl)benzamide]: the IC50 stood at 7.49 nM against ROCK2 and 22.5 nM against ROCK1.

In the case of `COc1cc(C(=O)NC(CO)c2ccccc2F)ccc1-c1cn[nH]c1` (stereo not shown) [Example 166, N-[1-(2-fluorophenyl)-2-hydroxyethyl]-3-methoxy-4-(1H-pyrazol-4-yl)benzamide], the figures for the IC50 against ROCK2 and on ROCK1 were 2.17 nM and 7.22 nM, respectively.

For the molecule `COc1cc(C(=O)NC(CO)c2ccccc2F)ccc1-c1cn[nH]c1` (stereo not shown) [Example 167, N-[1-(2-fluorophenyl)-2-hydroxyethyl]-3-methoxy-4-(1H-pyrazol-4-yl)benzamide], the half-inhibitory concentration (IC50) is 16.7 nM at ROCK2 and 56.5 nM on ROCK1.

As to `Cc1cc(C(=O)NC(C)c2cccc(O)n2)ccc1-c1cn[nH]c1` (stereo not shown) [Example 168, N-[1-(6-hydroxypyridin-2-yl)ethyl]-3-methyl-4-(1H-pyrazol-4-yl)benzamide], the IC50 against ROCK2 is 46.7 nM; against ROCK1 it was 130 nM.

Regarding `COc1cc(C(=O)NC(CCN(C)C)c2ccccc2)ccc1-c1cn[nH]c1` (stereo not shown) [Example 169, N-[3-(dimethylamino)-1-phenylpropyl]-3-methoxy-4-(1H-pyrazol-4-yl)benzamide], the IC50 was 1.93 nM against ROCK2 and 4.7 nM at ROCK1.

`C=C[C@@H](NC(=O)c1ccc(-c2cn[nH]c2)c(OC)c1)c1c(F)cccc1F` [Example 170, N-[(1R)-1-(2,6-difluorophenyl)prop-2-en-1-yl]-3-methoxy-4-(1H-pyrazol-4-yl)benzamide]: the IC50 against ROCK2 worked out at 10.5 nM; against ROCK1, 17.5 nM.

For `COc1cc(C(=O)N[C@@H](c2c(F)cccc2F)C(O)CO)ccc1-c1cn[nH]c1` (stereo partly drawn) [Example 175, N-[(1S)-1-(2,6-difluorophenyl)-2,3-dihydroxy-propyl]-3-methoxy-4-(1H-pyrazol-4-yl)benzamide], the figures for the IC50 on ROCK2 and against ROCK1 were 19.3 nM and 34.9 nM, respectively.

Consider `COc1cc(C(=O)NC(CCN(C)C)c2ccccc2)ccc1-c1cn[nH]c1` (stereo not shown) [Example 178, N-[3-(dimethylamino)-1-phenylpropyl]-3-methoxy-4-(1H-pyrazol-4-yl)benzamide], for which the IC50 against ROCK2 is 31.9 nM; on ROCK1 it was 94.2 nM.

`COc1cc(C(=O)NC(CCN(C)C)c2ccccc2)ccc1-c1cn[nH]c1` (stereo not shown) [Example 179, N-[3-(dimethylamino)-1-phenylpropyl]-3-methoxy-4-(1H-pyrazol-4-yl)benzamide]: the IC50 on ROCK2 turned out to be 7.75 nM; on ROCK1 it was 1.53 nM.

Turning to `CCc1ccccc1CNC(=O)c1ccc(-c2cn[nH]c2)c(OC)c1` [Example 180, N-[(2-ethylphenyl)methyl]-3-methoxy-4-(1H-pyrazol-4-yl)benzamide], the IC50 is 15.3 nM on ROCK2 and 36.4 nM against ROCK1.

Consider `C[C@@H](NC(=O)c1ccc(-c2cn[nH]c2)c(O)c1)c1ccc(F)cc1` [Example 183, N-[(1R)-1-(4-fluorophenyl)ethyl]-3-hydroxy-4-(1H-pyrazol-4-yl)benzamide], for which the 50% inhibitory concentration (IC50) at ROCK2 was determined as 7.68 nM; at ROCK1, 2.22 nM.

For `COc1cc(-c2c[nH]nc2C)ccc1C(=O)NCc1c(F)cccc1Cl` [Example 184, N-[(2-chloro-6-fluorophenyl)methyl]-2-methoxy-4-(3-methyl-1H-pyrazol-4-yl)benzamide], the IC50 against ROCK2 amounted to 101 nM; at ROCK1 it was 14.2 nM.

In the case of `COc1cc(-c2cn[nH]c2)ccc1C(=O)NCc1c(F)cccc1Cl` [Example 185, N-[(2-chloro-6-fluorophenyl)methyl]-2-methoxy-4-(1H-pyrazol-4-yl)benzamide], the results for the concentration for half-maximal inhibition (IC50) against ROCK2 and at ROCK1 were 6.48 nM and 26.3 nM, respectively.
